Assay results published in US10350213B2 (AI Therapeutics, Inc., priority 2015, dated 2019).

Legend:
[1] = system: WSU-DLCL2 (Human Diffuse Large B Cell Lymphoma -GCB); experiment: CellTiterGlo cell viability assay; format: cell-based; details: Homo sapiens, WSUDLCL2, 72 h, three-day assay, read-out: IC50 (nM) WSU-DLCL2
[2] = system: SUDHL-4 (Human Diffuse Large B Cell Lymphoma -GCB); experiment: CellTiterGlo cell viability assay; format: cell-based; details: Homo sapiens, 72 h; SU-DHL-4; three-day assay; read-out: IC50 (nM) SU-DHL-4

| Compound | IC50 [1] | IC50 [2] |
| --- | --- | --- |
| CC1(C)CCC(CN2CCN(c3ccc(C(=O)NS(=O)(=O)c4ccc(NCC5CCOCC5)c([N+](=O)[O-])c4)c(Oc4cnc5[nH]ccc5c4)c3)CC2)=C(c2ccc(Cl)cc2)C1 [ABT-199] | 3370 nM | 212 nM |
| O=C(/C=C\n1cnc(-c2cc(C(F)(F)F)cc(C(F)(F)F)c2)n1)NNc1cnccn1 [KPT-330] | 165 nM | 93 nM |
| C[C@H](Nc1ncnc2nc[nH]c12)c1cc2cccc(Cl)c2c(=O)n1-c1ccccc1 [duvelisib] | 863 nM | 13 nM |

The remaining lines, values ahead:

| IC50 [1] | IC50 [2] | Compound |
| --- | --- | --- |
| 747 nM | 718 nM | C=CC(=O)N1CCC[C@@H](n2nc(-c3ccc(Oc4ccccc4)cc3)c3c(N)ncnc32)C1 [ibrutinib] |
| 6150 nM | 2030 nM | CC[C@H](Nc1ncnc2[nH]cnc12)c1nc2cccc(F)c2c(=O)n1-c1ccccc1 [idelalisib] |
